Results on 24 compounds are retold here after patent US9828360B2 (Array BioPharma Inc., priority 2012, dated 2017).

SMILES strings stand for the structures.

Sequence of TrkA (P04629 440-796 limits assumed): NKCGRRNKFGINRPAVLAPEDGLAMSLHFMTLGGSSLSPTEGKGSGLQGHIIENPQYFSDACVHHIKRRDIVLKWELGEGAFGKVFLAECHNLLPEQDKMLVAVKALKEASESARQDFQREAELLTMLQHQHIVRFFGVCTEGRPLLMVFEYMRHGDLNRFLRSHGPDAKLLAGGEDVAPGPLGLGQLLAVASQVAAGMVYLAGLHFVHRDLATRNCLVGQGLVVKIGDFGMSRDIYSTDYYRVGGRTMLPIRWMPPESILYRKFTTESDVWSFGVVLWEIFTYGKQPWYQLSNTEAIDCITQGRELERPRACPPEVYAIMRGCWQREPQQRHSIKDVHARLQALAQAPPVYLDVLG

This assay has as its target TrkA (Homo sapiens, UniProt P04629). As to the kind of experiment: TrkA LanthaScreen Eu Kinase Binding Assay. To be noted: averaged IC50 values, read-out: TrkA Enzyme IC50. Set-up: 6HIS tagged cytoplasmic domain from Invitrogen, Cat. No. PV3144; purchased Invitrogen PV3144. The protocol:
TrkA binding activity was determined in a TrkA LanthaScreen™ Eu Kinase Binding Assay. 5 nM His-tagged recombinant human TrkA (6HIS tagged cytoplasmic domain from Invitrogen, Cat. No. PV3144) was incubated with 4 nM Alexa-Fluor® Tracer 236 (Invitrogen Cat. No. PV5592), 2 nM biotinylated anti-His (Invitrogen Cat. No. PV6090), and 2 nM europium-labeled Streptavidin (Invitrogen Cat. No. PV5899), in buffer (25 mM MOPS, pH 7.5, 5 mM MgCl2, 0.005% Triton X-100). Three fold serial dilutions of compounds of the invention in DMSO were added to a final percentage of 2% DMSO. After 60-minute incubation at 22° C., the reaction was measured using the EnVision mutlimode plate reader (PerkinElmer) via TR-FRET dual wavelength detection at […]. The percent of control was calculated using a ratiometric emission factor. The IC50 values were determined by fitting a four parameter model to the percent of control data.
Table A provides averaged IC50 values for compounds of the invention when tested in the assay of Example A, where A represents an averaged IC50 value <100 nM; and B represents an averaged IC50 value from 100 to 1,000 nM.
Background: In TR-FRET formats the signal depends on donor and acceptor labels being close together.
Take `COCCN1C[C@@H](NC(=O)Nc2ccc(C)nc2-c2ccccc2)[C@H](c2ccc(F)c(F)c2)C1` [Example 29, 1-((3S,4R)-4-(3,4-difluorophenyl)-1-(2-methoxyethyl)pyrrolidin-3-yl)-3-(6-methyl-2-phenylpyridin-3-yl)urea]: the IC50 – broadly, the point on the concentration scale where inhibition reaches its midpoint – was less than 100 nM.
Turning to `COCCN1C[C@@H](NC(=O)Nc2cc(C)cnc2-c2ccccc2)[C@H](c2ccc(F)c(F)c2)C1` [Example 30, 1-((3S,4R)-4-(3,4-difluorophenyl)-1-(2-methoxyethyl)pyrrolidin-3-yl)-3-(5-methyl-2-phenylpyridin-3-yl)urea], the IC50 was less than 100 nM.
`COCCN1C[C@@H](NC(=O)Nc2ccc(C)nc2-c2ccccc2)[C@H](c2cc(F)cc(F)c2)C1` [Example 31, 1-((3S,4R)-4-(3,5-difluorophenyl)-1-(2-methoxyethyl)pyrrolidin-3-yl)-3-(6-methyl-2-phenylpyridin-3-yl)urea]: the IC50 was less than 100 nM.
As for `COCCN1C[C@@H](NC(=O)Nc2ccc(C)nc2-c2ccccc2)[C@H](c2ccc(F)cc2)C1` [Example 32, 1-((3S,4R)-4-(4-fluorophenyl)-1-(2-methoxyethyl)pyrrolidin-3-yl)-3-(6-methyl-2-phenylpyridin-3-yl)urea], the IC50 is less than 100 nM.
As for `COCCN1C[C@@H](NC(=O)Nc2ccn(C)c(=O)c2-c2ccccc2)[C@H](c2ccc(F)c(F)c2)C1` [Example 33, 1-((3S,4R)-4-(3,4-difluorophenyl)-1-(2-methoxyethyl)pyrrolidin-3-yl)-3-(1-methyl-2-oxo-3-phenyl-1,2-dihydropyridin-4-yl)urea], the IC50 fell in the range of 100 to 1000 nM.
`COCCN1C[C@@H](NC(=O)Nc2cc(=O)n(C)nc2-c2ccccc2)[C@H](c2ccc(F)c(F)c2)C1` [Example 34, 1-((3S,4R)-4-(3,4-difluorophenyl)-1-(2-methoxyethyl)pyrrolidin-3-yl)-3-(1-methyl-6-oxo-3-phenyl-1,6-dihydropyridazin-4-yl)urea]: the IC50 lay within 100 to 1000 nM.
As for `COCCN1C[C@@H](NC(=O)Nc2cc(=O)n(CC(F)(F)F)nc2-c2ccccc2)[C@H](c2ccc(F)c(F)c2)C1` [Example 35, 1-((3S,4R)-4-(3,4-difluorophenyl)-1-(2-methoxyethyl)pyrrolidin-3-yl)-3-(6-oxo-3-phenyl-1-(2,2,2-trifluoroethyl)-1,6-dihydropyridazin-4-yl)urea], the IC50 lay within 100 to 1000 nM.
Take `COCCN1C[C@@H](NC(=O)Nc2c(-c3ccccc3)nsc2C(N)=O)[C@H](c2ccc(F)c(F)c2)C1` [Example 36, 4-(3-((3S,4R)-4-(3,4-difluorophenyl)-1-(2-methoxyethyl)pyrrolidin-3-yl)ureido)-3-phenylisothiazole-5-carboxamide]: the IC50 was less than 100 nM.
For the compound `COCCN1C[C@@H](NC(=O)Nc2c(-c3ccccc3)nc(C)n2C)[C@H](c2ccc(F)c(F)c2)C1` [Example 38, 1-((3S,4R)-4-(3,4-difluorophenyl)-1-(2-methoxyethyl)pyrrolidin-3-yl)-3-(1,2-dimethyl-4-phenyl-1H-imidazol-5-yl)urea], the IC50 is less than 100 nM.
In the case of `COCCN1C[C@@H](NC(=O)Nc2c(-c3ccccc3)c(=O)n(C)n2C)[C@H](c2ccc(F)c(F)c2)C1` [Example 39, 1-((3S,4R)-4-(3,4-difluorophenyl)-1-(2-methoxyethyl)pyrrolidin-3-yl)-3-(1,2-dimethyl-5-oxo-4-phenyl-2,5-dihydro-1H-pyrazol-3-yl)urea] it was less than 100 nM; in that of `CCn1c(=O)c(-c2ccccc2)c(NC(=O)N[C@@H]2CN(CCOC)C[C@H]2c2ccc(F)c(F)c2)n1C` [Example 40, 1-((3S,4R)-4-(3,4-difluorophenyl)-1-(2-methoxyethyl)pyrrolidin-3-yl)-3-(1-ethyl-2-methyl-5-oxo-4-phenyl-2,5-dihydro-1H-pyrazol-3-yl)urea], less than 100 nM.
`COCCN1C[C@@H](NC(=O)Nc2oc(-c3ccccc3)nc2C)[C@H](c2ccccc2)C1` [Example 42, 1-((3S,4R)-1-(2-methoxyethyl)-4-phenylpyrrolidin-3-yl)-3-(4-methyl-2-phenyloxazol-5-yl)urea]: the IC50 lay within 100 to 1000 nM.
Take `COCCN1C[C@@H](NC(=O)Nc2oc(C(C)C)nc2-c2ccccc2)[C@H](c2ccc(F)c(F)c2)C1` [Example 43, 1-((3S,4R)-4-(3,4-difluorophenyl)-1-(2-methoxyethyl)pyrrolidin-3-yl)-3-(2-isopropyl-4-phenyloxazol-5-yl)urea]: the IC50 was less than 100 nM.
The result for `COCCN1C[C@@H](NC(=O)Nc2oc(C(C)C)nc2-c2ccccc2)[C@H](c2ccccc2)C1` [Example 44, 11-(2-isopropyl-4-phenyloxazol-5-yl)-3-((3S,4R)-1-(2-methoxyethyl)-4-phenylpyrrolidin-3-yl)urea] reads 100 to 1000 nM.
The result for `COCCN1C[C@@H](NC(=O)Nc2sc(-c3ccccc3)nc2C)[C@H](c2ccc(F)c(F)c2)C1` [Example 45, 11-((3S,4R)-4-(3,4-difluorophenyl)-1-(2-methoxyethyl)pyrrolidin-3-yl)-3-(4-methyl-2-phenylthiazol-5-yl)urea] reads less than 100 nM; that for `COCCN1C[C@@H](NC(=O)Nc2sc(-c3ccccc3)nc2C)[C@H](c2ccccc2)C1` [Example 46, 1-((3S,4R)-1-(2-methoxyethyl)-4-phenylpyrrolidin-3-yl)-3-(4-methyl-2-phenylthiazol-5-yl)urea], less than 100 nM; that for `COCCN1C[C@@H](NC(=O)Nc2sc(C(C)C)nc2-c2ccccc2)[C@H](c2ccc(F)c(F)c2)C1` [Example 47, 1-((3S,4R)-4-(3,4-difluorophenyl)-1-(2-methoxyethyl)pyrrolidin-3-yl)-3-(2-isopropyl-4-phenylthiazol-5-yl)urea], less than 100 nM.
With `COCCN1C[C@@H](NC(=O)Nc2sc(C(=O)OC)nc2-c2ccccc2)[C@H](c2ccc(F)c(F)c2)C1` [Example 49, methyl 5-(3-((3S,4R)-4-(3,4-difluorophenyl)-1-(2-methoxyethyl)pyrrolidin-3-yl)ureido)-4-phenylthiazole-2-carboxylate], the IC50 fell in the range of 100 to 1000 nM.
As to `COCCN1C[C@@H](NC(=O)Nc2sc(CO)nc2-c2ccccc2)[C@H](c2ccc(F)c(F)c2)C1` [Example 50], the IC50 was less than 100 nM.
Consider `COCCN1C[C@@H](NC(=O)Nc2sc(C(C)(C)O)nc2-c2ccccc2)[C@H](c2ccc(F)c(F)c2)C1` [Example 51, 1-((3S,4R)-4-(3,4-difluorophenyl)-1-(2-methoxyethyl)pyrrolidin-3-yl)-3-(2-(2-hydroxypropan-2-yl)-4-phenylthiazol-5-yl)urea], for which the IC50 was less than 100 nM.
As for `COCCN1C[C@@H](NC(=O)Nc2sc(C(=O)N(C)C)nc2-c2ccccc2)[C@H](c2ccc(F)c(F)c2)C1` [Example 52, 5-(3-((3S,4R)-4-(3,4-difluorophenyl)-1-(2-methoxyethyl)pyrrolidin-3-yl)ureido)-N,N-dimethyl-4-phenylthiazole-2-carboxamide], the IC50 is 100 to 1000 nM.
`COCCN1C[C@@H](NC(=O)Nc2nc(C)nn2-c2ccccc2)[C@H](c2ccc(F)c(F)c2)C1` [Example 53, 1-((3S,4R)-4-(3,4-difluorophenyl)-1-(2-methoxyethyl)pyrrolidin-3-yl)-3-(3-methyl-1-phenyl-1H-1,2,4-triazol-5-yl)urea]: the IC50 is less than 100 nM.
In the case of `COCCN1C[C@@H](NC(=O)Nc2nc(-c3ccccc3)nn2C)[C@H](c2ccc(F)c(F)c2)C1` [Example 54, 1-((3S,4R)-4-(3,4-difluorophenyl)-1-(2-methoxyethyl)pyrrolidin-3-yl)-3-(1-methyl-3-phenyl-1H-1,2,4-triazol-5-yl)urea] it was 100 to 1000 nM; in that of `COCCN1C[C@@H](NC(=O)Nc2sc(-c3cnn(C)c3)nc2-c2ccccc2)[C@H](c2ccc(F)c(F)c2)C1` [Example 56, 1-((3S,4R)-4-(3,4-difluorophenyl)-1-(2-methoxyethyl)pyrrolidin-3-yl)-3-(2-(1-methyl-1H-pyrazol-4-yl)-4-phenylthiazol-5-yl)urea di(trifluoroacetate)], less than 100 nM.
